Like-named read-outs stand apart in the source and are kept apart here.
Experiments:
ATX = ATX (Homo sapiens (Human), UniProt Q13822); experiment: ATX enzyme inhibition assay (Amplex UltraRed/choline oxidase/HRP, 16:0 Lyso PC substrate); type: biochemical
Description: All compounds were prepared as a 10 mM DMSO stock solution.
Solutions at pH 8.5 and pH 7.5 were prepared respectively with the following formulations:
All compounds, including the positive control compound, were diluted 5-fold from 10 mM to 2 mM with DMSO in the first step. The mixture was then diluted to 100 μM with 1× assay buffer.
3. Separate Detection of Compounds with 1× Assay Buffer at Two pH Values:
a) 5 μL of 10× compound diluent was added to a 384-well plate (Greiner 781209) using a motorized pipette (see the “experimental preparation” step). 5 μL of 1× assay buffer containing 5% DMSO was added to both negative and positive control wells. The plate was centrifuged at 300 rpm for 1 minute at room temperature.
b) 2× ATX ([…]) was prepared with 1× assay buffer, and 25 μL of 2× ATX was added to the plate using a motorized pipette. 25 μL of 1× assay buffer was added to the negative control wells and 25 μL of 2× ATX was added to the positive control wells. The plate was centrifuged at 300 rpm for 1 minute at room temperature.
The plate was incubated at room temperature for 10 minutes.
c) 2.5× working solution containing Amplex UltraRed reagent (125 μM), HRP (2.5 U/mL), choline oxidase (1.25 U/mL), and 16:0 Lyso PC (75 μM) was prepared with 1× assay buffer. 20 μL of 2.5× working solution was added to all reaction wells using a motorized pipette. The plate was centrifuged at 300 rpm for 1 minute at room temperature.
d) The plate was detected by SpectraMax with the following procedures: fluorescence mode; excitation at 550 nm; emission at 590 nm; kinetics; read once every 2 minutes; read continuously for 60 minutes.
The calculation formula of % inhibition (i.e., % inhibition rate) was as follows: […]
V0: X-axis is taken as 0 to 30 minutes, Y-axis is taken as fluorescence readings, and the slope corresponding to the straight line fitted by the software GraphPad Prism 8 is the initial response rate.
V0max: Average V0 of the positive control wells in the plate.
V0min: Average V0 of the negative control wells in the plate.
The IC50 of the compounds was calculated from a nonlinear regression line (dose-initial response rate) fitted by % inhibition and log value of compound concentration using the software GrahPad Prism 8.

[1] = tested on: plasma LPA 18:1 and LPA 18:2; experiment: Human plasma ex vivo assay (LPA 18:1 / 18:2 by LC-MS/MS); type: biochemical; settings: 37° C., 2 hours
Summary of the method: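 Human plasma incubated 2 h at 37° C with compound (8 points, 1:3 dilution, top 10 μM, 0.1% DMSO), then quenched with 0.1% FA containing LPA 17:0 internal standard.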

[2] = assay buffer pH 8.5, read-out: IC50 (nM) pH 8.5
[3] = LPA 18:1, read-out: Human plasma ex vivo assay IC50 (18:1 LPA)
[4] = LPA 18:2, read-out: Human plasma ex vivo assay IC50 (18:2 LPA)
[5] = assay buffer pH 7.5, read-out: IC50 (nM) pH 7.5

Row | SMILES | IC50 (ATX; [2]) | IC50 [1, 3] | IC50 [1, 4] | IC50 (ATX; [5])
1 | C[C@@H]1CN(c2cc(F)c3nc4c(c(N(C)c5nc(-c6ccc(F)cc6)c(C#N)s5)c3c2)CC[C@@H]4O)CCN1CC(=O)N1CC(O)C1 (single isomer, unassigned) [Example E9-a] | 21.5 nM | 0.464 µM | 0.392 µM | 
2 | C[C@@H]1CN(c2cc(F)c3nc4c(c(N(C)c5nc(-c6ccc(F)cc6)c(C#N)s5)c3c2)CC[C@H]4O)CCN1CC(=O)N1CC(O)C1 (single isomer, unassigned) [Example E9-b] | 18.4 nM | 0.209 µM | 0.199 µM | 
3 | CN(c1nc(-c2ccc(F)cc2)c(C#N)s1)c1c2c(nc3c(F)cc(N4CCN(CC(=O)N5CC(C)(O)C5)CC4)cc13)[C@@H](O)CC2 (single isomer, unassigned) [Example E10-a] | 17.9 nM | 0.384 µM | 0.43 µM | 
4 | CN(c1nc(-c2ccc(F)cc2)c(C#N)s1)c1c2c(nc3c(F)cc(N4CCN(CC(=O)N5CC(C)(O)C5)CC4)cc13)[C@H](O)CC2 (single isomer, unassigned) [Example E10-b] | 14.4 nM | 0.263 µM | 0.261 µM | 
5 | CN(c1nc(-c2ccc(F)cc2)c(C#N)s1)c1c2c(nc3c(F)cc(N4CC5(CN(C(=O)[C@@H]6CCOC6)C5)C4)cc13)[C@@H](O)CC2 (single isomer, unassigned) [Example E13-a] | 19.8 nM | 0.385 µM | 0.385 µM | 
6 | CN(c1nc(-c2ccc(F)cc2)c(C#N)s1)c1c2c(nc3c(F)cc(N4CC5(CN(C(=O)C6(O)CCOCC6)C5)C4)cc13)[C@@H](O)CC2 (single isomer, unassigned) [Example E15-a] | 14.9 nM | 0.392 µM | 0.389 µM | 
7 | CN(c1nc(-c2ccc(F)cc2)c(C#N)s1)c1c2c(nc3c(F)cc(N4CC5(CN(C(=O)[C@]6(O)CCOC6)C5)C4)cc13)[C@H](O)CC2 (single isomer, unassigned) [Example E19-1a] | 22.9 nM | 0.207 µM | 0.361 µM | 
8 | CN(c1nc(-c2ccc(F)cc2)c(C#N)s1)c1c2c(nc3c(F)cc(N4CC5(CN(C(=O)[C@]6(O)CCOC6)C5)C4)cc13)[C@@H](O)CC2 (single isomer, unassigned) [Example E19-1b] | 27.2 nM | 0.217 µM | 0.479 µM | 
9 | CN(c1nc(-c2ccc(F)cc2)c(C#N)s1)c1c2c(nc3c(F)cc(N4CC5(CN(C(=O)[C@@]6(O)CCOC6)C5)C4)cc13)[C@@H](O)CC2 (single isomer, unassigned) [Example E19-2a] | 26.7 nM | 0.207 µM | 0.203 µM | 
10 | CN(c1nc(-c2ccc(F)cc2)c(C#N)s1)c1c2c(nc3c(F)cc(N4CC5(CN(C(=O)[C@@]6(O)CCOC6)C5)C4)cc13)[C@@H](O)CC2 (single isomer, unassigned) [Example E19-2b] | 334 nM | 0.113 µM | 0.31 µM | 
11 | CN(c1nc(-c2ccc(F)cc2)c(C#N)s1)c1c2c(nc3ccc(N4CCN(CC(=O)N5CC(O)C5)CC4)cc13)CCC2 [Example A1] | 27.7 nM | 0.183 µM | 0.196 µM | 138 nM
12 | CN(c1nc(-c2ccc(F)cc2)c(C#N)s1)c1c2c(nc3ccc(N4CCN(CC(=O)N5CC(O)C5)CC4)cc13)COC2 [Example A2] | 96.7 nM | 0.085 µM | 0.0735 µM | 624 nM
13 | CN(c1nc(-c2ccc(F)cc2)c(C#N)s1)c1c2c(nc3ccc(N4CCN(CC(=O)N5CC(O)C5)CC4)cc13)CCO2 [Example A3] | 27.8 nM | 0.109 µM | 0.103 µM | 214 nM
14 | CN(c1nc(-c2ccc(F)cc2)c(C#N)s1)c1c2c(nc3c(F)cc(N4CCN(CC(=O)N5CC(O)C5)CC4)cc13)CCC2 [Example A4] | 52.1 nM | 0.16 µM | 0.176 µM | 174 nM
15 | CN(c1nc(-c2ccc(F)cc2)c(C#N)s1)c1c2c(nc3c(F)cc(N4CCN(CC(=O)N5CC(CO)C5)CC4)cc13)CCC2 [Example A5] | 32.8 nM | 0.2 µM | 0.239 µM | 112 nM
16 | CN(c1nc(-c2ccc(F)cc2)c(C#N)s1)c1c2c(nc3c(F)cc(N4CCC5(CC4)CN(CC(=O)N4CC(O)C4)C5)cc13)CCC2 [Example A6] | 44.7 nM | 0.182 µM | 0.184 µM | 318 nM
17 | CN(c1nc(-c2ccc(F)cc2)c(C#N)s1)c1c2c(nc3ccc(N4CCN(CC(=O)N5CC(O)C5)CC4)cc13)CC2 [Example A7] | 22.2 nM | 0.0742 µM | 0.0727 µM | 85.1 nM

Row | SMILES | IC50 (ATX; [2]) | IC50 [1, 3] | IC50 [1, 4] | IC50 (ATX; [5])
18 | CN(c1nc(-c2ccc(F)cc2)c(C#N)s1)c1c2c(nc3cc(F)c(N4CCN(CC(=O)N5CC(O)C5)CC4)cc13)CCC2 [Example A8] | 64 nM | 0.248 µM | 0.271 µM | 883 nM
19 | CN(c1nc(-c2ccc(F)cc2)c(C#N)s1)c1c2c(nc3c(F)cc(N4CC5(CN(CC(=O)N6CC(O)C6)C5)C4)cc13)CCC2 [Example A9] | 86.8 nM | 0.351 µM | 0.323 µM | 699 nM
20 | CN(c1nc(-c2ccc(F)cc2)c(C#N)s1)c1c2c(nc3ccc(N4CCN(CC(=O)N5CC(O)C5)CC4)nc13)CCC2 [Example A10] | 60.7 nM | 0.192 µM | 0.157 µM | 559 nM
21 | CN(c1nc(-c2ccc(F)cc2)c(C#N)s1)c1c2c(nc3c(F)cc(N4CC5(CCN(CC(=O)N6CC(O)C6)CC5)C4)cc13)CCC2 [Example A11] | 145 nM | 0.299 µM | 0.359 µM | 1180 nM
22 | CN(c1nc(-c2ccc(F)cc2)c(C#N)s1)c1c2c(nc3ccc(N4CCN(CC(=O)N5CC(O)C5)CC4)nc13)CCO2 [Example A12] | 22.3 nM | 0.0645 µM | 0.0916 µM | 219 nM
23 | Cc1cc(N2CCN(CC(=O)N3CC(O)C3)CC2)cc2c(N(C)c3nc(-c4ccc(F)cc4)c(C#N)s3)c3c(nc12)CCC3 [Example A14] | 228 nM | 0.304 µM | 0.338 µM | 
24 | CN(c1nc(-c2ccc(F)cc2)c(C#N)s1)c1c2c(nc3c(F)cc(N4CCN(CC(=O)N5CC(F)C5)CC4)cc13)CCC2 [Example A16] | 75.7 nM | 0.286 µM | 0.341 µM | 282 nM
25 | CN(c1nc(-c2ccc(F)cc2)c(C#N)s1)c1c2c(nc3c(F)cc(N4CC5(CN(CC(=O)N6CC(O)C6)C5)C4)cc13)CC2 [Example A17] | 48.7 nM | 0.164 µM | 0.172 µM | 
26 | CN(c1nc(-c2ccc(F)cc2)c(C#N)s1)c1c2c(nc3c(F)cc(N4CC5(CN(CC(=O)N6CC(CO)C6)C5)C4)cc13)CC2 [Example A18] | 61.1 nM | 0.162 µM | 0.192 µM | 228 nM
27 | CN(c1nc(-c2ccc(F)cc2)c(C#N)s1)c1c2c(nc3c(F)cc(N4CCN(CC(=O)N5CC(O)C5)CC4)cc13)COC2 [Example A19] | 52.7 nM | 0.118 µM | 0.132 µM | 413 nM
28 | CN(c1nc(-c2ccc(F)cc2)c(C#N)s1)c1c2c(nc3cnc(N4CCN(CC(=O)N5CC(O)C5)CC4)cc13)CCC2 [Example A20] | 84 nM | 0.17 µM | 0.203 µM | 645 nM
29 | CN(c1nc(-c2ccc(F)cc2)c(C#N)s1)c1c2c(nc3ncc(N4CCN(CC(=O)N5CC(O)C5)CC4)cc13)CCC2 [Example A21] | 23.7 nM | 0.0702 µM | 0.0559 µM | 125 nM
30 | CN(c1nc(-c2ccc(F)cc2)c(C#N)s1)c1c2c(nc3c(F)cc(N4CC5(CN(CC(=O)N6CC(O)C6)C5)C4)cc13)COC2 [Example A24] | 181 nM | 0.466 µM | 0.486 µM | 
31 | CN(c1nc(-c2ccc(F)cc2)c(C#N)s1)c1c2c(nc3c(F)cc(N4CC5(CN(CC(=O)N6CC(CO)C6)C5)C4)cc13)CCC2 [Example A25] | 75 nM | 0.251 µM | 0.269 µM | 541 nM
32 | CN(c1nc(-c2ccc(F)cc2)c(C#N)s1)c1c2c(nc3ccc(N4CCN(S(C)(=O)=O)C[C@@H]4CO)cc13)CCC2 [Example B1] | 112 nM | 0.176 µM | 0.169 µM | 
33 | CN(c1nc(-c2ccc(F)cc2)c(C#N)s1)c1c2c(nc3ccc(N4CCN(S(C)(=O)=O)C[C@H]4CO)cc13)CCC2 [Example B2] | 58.8 nM | 0.177 µM | 0.201 µM | 141 nM

Reference: patent US20250051321A1, “TRICYCLIC DERIVATIVE AND PREPARATION METHOD THEREFOR AND APPLICATION THEREOF” (SHANGHAI JEMINCARE PHARMACEUTICAL CO., LTD., priority 2021, published 2025)
